Laboratory results reported in patent US11826351B2, “Compounds useful as kinase inhibitors” (Loxo Oncology, Inc., priority 2015, dated 2023).

Legend:
Recombinant EGFR = biological target: T1, Recombinant EGFR (Homo sapiens, UniProt P00533); assay: EGFR binding affinity (LanthaScreen TR-FRET); settings: Kinase Tracer 199, 5 h incubation
T1 construct: purchased Invitrogen
Procedure, shortened: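 Compounds were titrated against recombinant EGFR and binding was followed by LanthaScreen time-resolved FRET.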

[1] = tested on: OCI-Ly10 human DLBCL cells; assay: OCI-Ly10 anti-proliferative activity (Resazurin); format: cell-based; settings: Homo sapiens, OCI-Ly10, 72 h, OCI-Ly10 cells, 72 h compound treatment, Resazurin; read-out: Proliferation Assay OCI-Ly10-20% FBS
Procedure, shortened: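 A separate untreated plate gave the Day 0 reading, measured by Resazurin fluorescence at 590 nm after 5 h. The average Day 0 value was subtracted from each treated well, and results were expressed as percent of DMSO control. IC50 values came from a log[Inhibitor] vs response Variable Slope fit in Graphpad prism.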

[2] = biological target: T2, Recombinant BTK^C481S kinase (Homo sapiens, UniProt Q06187, C481S); assay: BTK C481S binding affinity (LanthaScreen TR-FRET); settings: Kinase Tracer 236, 5 h incubation
T2 construct: purchased SignalChem
Procedure, shortened: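 BTK C481S tracer-displacement TR-FRET: 5 nM His-tagged kinase, 2 nM Eu anti-His antibody and 30 nM Kinase Tracer 236 incubated with titrated inhibitor for 5 h in Kinase Buffer A. Read at 340 nm excitation, 615/665 nm emission; IC50 from variable-slope log[inhibitor]–response fit.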

[3] = biological target: T3, Recombinant BTK^WT kinase (Homo sapiens, UniProt Q06187); assay: BTK WT binding affinity (LanthaScreen TR-FRET); settings: Kinase Tracer 236, 5 h incubation
T3 construct: purchased Invitrogen
Procedure, shortened: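 IC50 obtained by variable-slope fit of TR-FRET signal (ex 340 nm; em 615 and 665 nm) versus inhibitor concentration. Reaction held for 5 h in LanthaScreen Kinase Buffer A with 2.5 nM His-tagged BTK^WT, 15 nM Kinase Tracer 236 and 2 nM Eu anti-His antibody.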

T2 sequence (Q06187 whole entry C481S): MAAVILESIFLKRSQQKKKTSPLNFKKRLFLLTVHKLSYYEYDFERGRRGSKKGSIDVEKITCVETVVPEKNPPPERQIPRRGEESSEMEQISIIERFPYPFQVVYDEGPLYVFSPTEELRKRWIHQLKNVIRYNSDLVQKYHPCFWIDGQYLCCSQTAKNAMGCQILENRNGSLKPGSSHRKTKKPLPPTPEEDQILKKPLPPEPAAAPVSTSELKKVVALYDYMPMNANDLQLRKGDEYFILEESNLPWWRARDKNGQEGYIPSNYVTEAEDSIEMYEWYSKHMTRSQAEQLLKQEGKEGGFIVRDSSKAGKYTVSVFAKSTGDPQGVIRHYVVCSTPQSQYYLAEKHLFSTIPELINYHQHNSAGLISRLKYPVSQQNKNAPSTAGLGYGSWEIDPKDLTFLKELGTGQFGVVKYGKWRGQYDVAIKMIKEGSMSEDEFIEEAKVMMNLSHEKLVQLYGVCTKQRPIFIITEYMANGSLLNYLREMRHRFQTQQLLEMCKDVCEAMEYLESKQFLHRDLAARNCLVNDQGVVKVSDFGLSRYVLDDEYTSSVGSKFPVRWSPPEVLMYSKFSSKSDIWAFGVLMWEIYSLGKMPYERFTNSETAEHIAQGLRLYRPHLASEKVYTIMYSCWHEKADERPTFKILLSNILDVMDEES
T1 sequence (P00533 25-1210): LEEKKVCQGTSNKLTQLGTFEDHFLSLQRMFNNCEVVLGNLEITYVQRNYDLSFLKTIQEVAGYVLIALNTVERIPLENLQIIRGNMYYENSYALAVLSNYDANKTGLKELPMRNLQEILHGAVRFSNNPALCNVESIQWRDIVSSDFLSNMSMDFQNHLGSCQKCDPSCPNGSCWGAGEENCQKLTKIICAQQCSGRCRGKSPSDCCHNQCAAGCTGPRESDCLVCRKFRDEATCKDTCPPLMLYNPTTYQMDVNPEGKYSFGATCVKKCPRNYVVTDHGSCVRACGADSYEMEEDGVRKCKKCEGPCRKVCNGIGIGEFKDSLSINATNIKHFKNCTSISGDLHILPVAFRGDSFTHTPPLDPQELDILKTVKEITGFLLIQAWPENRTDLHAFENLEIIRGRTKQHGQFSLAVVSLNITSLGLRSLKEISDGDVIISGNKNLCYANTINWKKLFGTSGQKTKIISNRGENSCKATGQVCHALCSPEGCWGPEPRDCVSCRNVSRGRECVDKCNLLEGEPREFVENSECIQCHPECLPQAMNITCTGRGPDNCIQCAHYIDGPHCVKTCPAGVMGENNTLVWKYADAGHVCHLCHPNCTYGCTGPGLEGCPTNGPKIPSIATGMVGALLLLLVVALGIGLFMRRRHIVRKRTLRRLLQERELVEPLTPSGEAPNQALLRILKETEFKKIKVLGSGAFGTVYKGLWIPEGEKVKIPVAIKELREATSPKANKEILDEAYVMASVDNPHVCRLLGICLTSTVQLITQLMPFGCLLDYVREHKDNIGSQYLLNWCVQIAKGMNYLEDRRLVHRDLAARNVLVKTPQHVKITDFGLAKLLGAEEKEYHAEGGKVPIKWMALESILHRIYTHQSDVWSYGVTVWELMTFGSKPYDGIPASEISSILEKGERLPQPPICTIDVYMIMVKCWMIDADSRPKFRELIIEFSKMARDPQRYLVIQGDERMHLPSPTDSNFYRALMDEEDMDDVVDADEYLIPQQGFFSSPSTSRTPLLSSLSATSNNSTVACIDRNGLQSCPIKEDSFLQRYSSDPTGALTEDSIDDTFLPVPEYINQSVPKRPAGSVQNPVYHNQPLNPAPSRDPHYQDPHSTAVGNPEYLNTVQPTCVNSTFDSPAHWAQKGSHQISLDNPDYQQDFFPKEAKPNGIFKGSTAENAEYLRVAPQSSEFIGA
T3 sequence (Q06187 whole entry): as the sequence (Q06187 whole entry C481S) above, with S481C counted along it

Compound	IC50 (Recombinant EGFR)	IC50 [1]	IC50 [2]	IC50 [3]
COc1ccc(F)cc1C(=O)NCc1ccc(-c2nn(C3CCCOC3)c(N)c2C(N)=O)cc1F (stereo not drawn) [Example 127, 5-amino-3-[3-fluoro-4-[[(5-fluoro-2-methoxy-benzoyl)amino]methyl]phenyl]-1-tetrahydropyran-3-yl-pyrazole-4-carboxamide]	1000 to 10000 nM	10 to 100 nM	< 10 nM	< 10 nM
COc1ccc(F)cc1C(=O)NCc1ccc(-c2nn(CC(F)(F)F)c(N)c2C(N)=O)cc1F [Example 128, 5-amino-3-[3-fluoro-4-[[(5-fluoro-2-methoxy-benzoyl)amino]methyl]phenyl]-1-(2,2,2-trifluoroethyl)pyrazole-4-carboxamide]	1000 to 10000 nM	10 to 100 nM	< 10 nM	< 10 nM
COc1ccccc1C(=O)NCc1ccc(-c2nn(CC(F)(F)F)c(N)c2C(N)=O)cc1F [Example 129, 5-amino-3-[3-fluoro-4-[[(2-methoxybenzoyl)amino]methyl]phenyl]-1-(2,2,2-trifluoroethyl)pyrazole-4-carboxamide]	1000 to 10000 nM	100 to 1000 nM	< 10 nM	< 10 nM
COc1ccccc1C(=O)NCc1ccc(-c2nn(C3CCCC3)c(N)c2C(N)=O)c(F)c1 [Example 130, 5-amino-1-cyclopentyl-3-[2-fluoro-4-[[(2-methoxybenzoyl)amino]methyl]phenyl]pyrazole-4-carboxamide]	1000 to 10000 nM	10 to 100 nM	< 10 nM	< 10 nM
COc1ccccc1C(=O)NCc1ccc(-c2nn(C(C)C3CC3)c(N)c2C(N)=O)cc1 (stereo not drawn) [Example 131, 5-amino-1-(1-cyclopropylethyl)-3-[4-[[(2-methoxybenzoyl)amino]methyl]phenyl]pyrazole-4-carboxamide]	100 to 1000 nM	10 to 100 nM	< 10 nM	< 10 nM
COc1ccccc1C(=O)NCc1ccc(-c2nn(C3CCCC3)c(N)c2C(N)=O)cn1 [Example 134, 5-amino-1-cyclopentyl-3-[6-[[(2-methoxybenzoyl)amino]methyl]-3-pyridyl]pyrazole-4-carboxamide]	> 10000 nM	1000 to 10000 nM	10 to 100 nM	10 to 100 nM
COc1ccccc1C(=O)NCc1ccc(-c2nn(C(C)CO)c(N)c2C(N)=O)cc1 (stereo not drawn) [Example 135, 5-amino-1-(2-hydroxy-1-methyl-ethyl)-3-[4-[[(2-methoxybenzoyl)amino]methyl]phenyl]pyrazole-4-carboxamide]	> 10000 nM	1000 to 10000 nM	< 10 nM	10 to 100 nM
COc1ccc(F)cc1C(=O)NCc1ccc(-c2nn(C3CCCC3)c(N)c2C(N)=O)c(F)c1 [Example 136, 5-amino-1-cyclopentyl-3-[2-fluoro-4-[[(5-fluoro-2-methoxy-benzoyl)amino]methyl]phenyl]pyrazole-4-carboxamide]	1000 to 10000 nM	10 to 100 nM	< 10 nM	< 10 nM
COc1ccc(F)cc1C(=O)NCc1cc(F)c(-c2nn(C3CCCC3)c(N)c2C(N)=O)cc1F [Example 137, 5-amino-1-cyclopentyl-3-[2,5-difluoro-4-[[(5-fluoro-2-methoxy-benzoyl)amino]methyl]phenyl]pyrazole-4-carboxamide]	1000 to 10000 nM	10 to 100 nM	< 10 nM	< 10 nM
COc1ccccc1C(=O)NCc1c(F)cc(-c2nn(C3CCCC3)c(N)c2C(N)=O)cc1F [Example 138, 5-amino-1-cyclopentyl-3-[3,5-difluoro-4-[[(2-methoxybenzoyl)amino]methyl]phenyl]pyrazole-4-carboxamide]	> 10000 nM	100 to 1000 nM	10 to 100 nM	10 to 100 nM
COc1ccc(F)cc1C(=O)NCc1c(F)cc(-c2nn(C3CCCC3)c(N)c2C(N)=O)cc1F [Example 139, 5-amino-1-cyclopentyl-3-[3,5-difluoro-4-[[(5-fluoro-2-methoxy-benzoyl)amino]methyl]phenyl]pyrazole-4-carboxamide]	> 10000 nM	100 to 1000 nM	< 10 nM	10 to 100 nM
COc1ccccc1C(=O)NCc1cc(F)c(-c2nn(C3CCCC3)c(N)c2C(N)=O)c(F)c1 [Example 140, 5-amino-1-cyclopentyl-3-[2,6-difluoro-4-[[(2-methoxybenzoyl)amino]methyl]phenyl]pyrazole-4-carboxamide]	> 10000 nM	100 to 1000 nM	< 10 nM	< 10 nM
COc1ccccc1C(=O)NCc1ccc(-c2nn(C3CCOCC3)c(N)c2C(N)=O)c(F)c1F [Example 141, 5-amino-3-[2,3-difluoro-4-[[(2-methoxybenzoyl)amino]methyl]phenyl]-1-tetrahydropyran-4-yl-pyrazole-4-carboxamide]	> 10000 nM	100 to 1000 nM	< 10 nM	10 to 100 nM
COc1ccc(F)cc1C(=O)NCc1ccc(-c2nn(C3CCOCC3)c(N)c2C(N)=O)c(F)c1F [Example 142, 5-amino-3-[2,3-difluoro-4-[[(5-fluoro-2-methoxy-benzoyl)amino]methyl]phenyl]-1-tetrahydropyran-4-yl-pyrazole-4-carboxamide]	1000 to 10000 nM	100 to 1000 nM	< 10 nM	< 10 nM
COCC(C)n1nc(-c2ccc(CNC(=O)c3ccccc3OC)cc2)c(C(N)=O)c1N (stereo not drawn) [Example 143, 5-amino-3-[4-[[(2-methoxybenzoyl)amino]methyl]phenyl]-1-(2-methoxy-1-methyl-ethyl)pyrazole-4-carboxamide]	> 10000 nM	100 to 1000 nM	< 10 nM	10 to 100 nM
COc1ccccc1C(=O)NCc1ccc(-c2nn(C3CNCC3(F)F)c(N)c2C(N)=O)cc1 (stereo not drawn) [Example 144, 5-amino-1-(4,4-difluoropyrrolidin-3-yl)-3-[4-[[(2-methoxybenzoyl)amino]methyl]phenyl]pyrazole-4-carboxamide]	100 to 1000 nM	100 to 1000 nM	< 10 nM	< 10 nM
COc1ccccc1C(=O)NCc1ccc(-c2nn(C(C)c3cccnc3)c(N)c2C(N)=O)cc1 (stereo not drawn) [Example 145, 5-amino-3-[4-[[(2-methoxybenzoyl)amino]methyl]phenyl]-1-[1-(3-pyridyl)ethyl]pyrazole-4-carboxamide]	> 10000 nM	100 to 1000 nM	10 to 100 nM	10 to 100 nM
COc1ccc(F)cc1C(=O)NCc1cc(F)c(-c2nn(C3CCOCC3)c(N)c2C(N)=O)cc1F [Example 146, 5-amino-3-[2,5-difluoro-4-[[(5-fluoro-2-methoxy-benzoyl)amino]methyl]phenyl]-1-tetrahydropyran-4-yl-pyrazole-4-carboxamide]	> 10000 nM	100 to 1000 nM	< 10 nM	< 10 nM
COc1ccccc1C(=O)NCc1ccc(-c2nn(C3COC(C)(C)C3)c(N)c2C(N)=O)cc1 (stereo not drawn) [Example 147, 5-amino-1-(5,5-dimethyltetrahydrofuran-3-yl)-3-[4-[[(2-methoxybenzoyl)amino]methyl]phenyl]pyrazole-4-carboxamide]	1000 to 10000 nM	10 to 100 nM	< 10 nM	< 10 nM
COc1ccccc1C(=O)NCc1cc(F)c(-c2nn(C3CCOCC3)c(N)c2C(N)=O)cc1F [Example 148, 5-amino-3-[2,5-difluoro-4-[[(2-methoxybenzoyl)amino]methyl]phenyl]-1-tetrahydropyran-4-yl-pyrazole-4-carboxamide]	> 10000 nM	100 to 1000 nM	< 10 nM	10 to 100 nM
COc1ccc(F)cc1C(=O)NCc1cc(F)c(-c2nn(C3CCCOC3)c(N)c2C(N)=O)cc1F (stereo not drawn) [Example 149, 5-amino-3-[2,5-difluoro-4-[[(5-fluoro-2-methoxy-benzoyl)amino]methyl]phenyl]-1-tetrahydropyran-3-yl-pyrazole-4-carboxamide]	> 10000 nM	10 to 100 nM	< 10 nM	< 10 nM
CCC(C)n1nc(-c2ccc(CNC(=O)c3ccccc3OC)cc2)c(C(N)=O)c1N (stereo not drawn) [Example 150, 5-amino-3-[4-[[(2-methoxybenzoyl)amino]methyl]phenyl]-1-sec-butyl-pyrazole-4-carboxamide]	1000 to 10000 nM	10 to 100 nM	< 10 nM	< 10 nM
COc1ccccc1C(=O)NCc1cc(F)c(-c2nn(C3CCCOC3)c(N)c2C(N)=O)cc1F (stereo not drawn) [Example 151, 5-amino-3-[2,5-difluoro-4-[[(2-methoxybenzoyl)amino]methyl]phenyl]-1-tetrahydropyran-3-yl-pyrazole-4-carboxamide]	1000 to 10000 nM	100 to 1000 nM	< 10 nM	< 10 nM
COc1ccccc1C(=O)NCc1cc(F)c(-c2nn(C3CCOC3)c(N)c2C(N)=O)cc1F (stereo not drawn) [Example 152, 5-amino-3-[2,5-difluoro-4-[[(2-methoxybenzoyl)amino]methyl]phenyl]-1-tetrahydrofuran-3-yl-pyrazole-4-carboxamide]	> 10000 nM	100 to 1000 nM	10 to 100 nM	10 to 100 nM
